Measured values as given in patent US10858360B2, “Tricyclic gyrase inhibitors” (priority 2011, dated 2020).
≈ marks a conversion by molar mass, not a printed value.

How the values were obtained:
Assay type in all cases: cell-based
[1] = tested on: E. coli ATCC 25922; assay: MIC, E. coli ATCC 25922; details: for MIC: Escherichia coli
[2] = tested on: F. tularensis holarctica LVS; assay: microbe, parasite or virus in culture; details: Ft = F. tularensis; strain not given
[3] = tested on: P. aeruginosa ATCC 15692; assay: MIC, P. aeruginosa ATCC 15692; details: for MIC: Pseudomonas aeruginosa, ATCC15692, Pa = P. aeruginosa
[4] = tested on: A. baumannii ATCC 19606; assay: MIC, A. baumannii ATCC 19606; details: strain not given; for MIC: Acinetobacter baumannii, ATCC19606, Ab = A. baumannii
[5] = tested on: Y. pestis CO92 pgm-; assay: microbe, parasite or virus in culture; details: Yp = Y. pestis
[6] = tested on: S. pneumoniae ATCC 51916; assay: MIC, S. pneumoniae ATCC 51916; details: for MIC: Streptococcus pneumoniae, ATCC51916, Spn = S. pneumoniae
[7] = tested on: S. aureus ATCC 13709; assay: MIC, S. aureus ATCC 13709 (Alamar Blue broth microdilution); details: for MIC: Staphylococcus aureus
[8] = tested on: K. pneumoniae ATCC 700603; assay: MIC, K. pneumoniae ATCC 700603; details: for MIC Kpn: Kpn = K. pneumoniae; for MIC: Klebsiella pneumoniae, ATCC700603, read-out: MIC Kpn
[9] = tested on: B. thailandensis ATCC E264; assay: microbe, parasite or virus in culture
[10] = E. coli, Alamar Blue read after overnight incubation at 35° C.
[11] = S. aureus, Alamar Blue read after overnight incubation at 35° C.
[12] = ATCC25922, E. coli, Alamar Blue read after overnight incubation at 35° C.
[13] = ATCC25922, Ec = E. coli, strain not given
[14] = ATCC13709, S. aureus, Alamar Blue read after overnight incubation at 35° C.

SMILES: CNc1cc(F)cc2c1[nH]c1nc(Oc3ccc4cncnc4c3)nc(N3CC4CC(N)C4C3)c12 (stereo not shown) [4.365]
- MIC Ec [1, 10]: ≤0.5 µg/mL
- MIC Ec ([1]; Ec = E. coli, strain not given): ≤0.5 µg/mL
- MIC Ft [2]: 1 µg/mL (≈ 2.13 µM)
- MIC Pa [3]: 1 µg/mL (≈ 2.13 µM)
- MIC Ab [4]: ≤0.5 µg/mL
- MIC Yp [5]: ≤0.5 µg/mL
- MIC Spn [6]: ≤0.5 µg/mL
- MIC Sa [7, 11]: ≤0.5 µg/mL
- MIC Sa ([7]; Sa = S. aureus): ≤0.5 µg/mL
- MIC Kpn [8]: 4 µg/mL (≈ 8.5 µM)
- MIC Bt [9]: ≤0.5 µg/mL

SMILES: CNc1cc(F)c(C)c2c1[nH]c1nc(Oc3cnc(C)nc3)nc(N3CC4C[C@@H]3C[C@H]4N)c12 [6.28]
- MIC [1, 12]: ≤ 0.5 µg/mL
- MIC [1, 13]: ≤ 0.5 µg/mL
- MIC [3]: 1 µg/mL (≈ 2.23 µM)
- MIC [4]: ≤ 0.5 µg/mL
- MIC [6]: ≤ 0.5 µg/mL
- MIC [7, 14]: ≤ 0.5 µg/mL
- MIC ([7]; ATCC13709, Sa = S. aureus): ≤ 0.5 µg/mL
- MIC [8]: 2 µg/mL (≈ 4.46 µM)

SMILES: CNc1cc(F)c(F)c2c1[nH]c1nc(Oc3cnc(N)nc3)nc(N3CC(N)C4(CC4)C3)c12 (stereo not shown) [5.11]
- MIC Ec [1, 10]: ≤0.5 µg/mL
- MIC Ec ([1]; Ec = E. coli, strain not given): ≤0.5 µg/mL
- MIC Pa [3]: 4 µg/mL (≈ 8.82 µM)
- MIC Ab [4]: 2 µg/mL (≈ 4.41 µM)
- MIC Spn [6]: ≤0.5 µg/mL
- MIC Sa [7, 11]: ≤0.5 µg/mL
- MIC Sa ([7]; Sa = S. aureus): ≤0.5 µg/mL
- MIC Kpn [8]: 4 µg/mL (≈ 8.82 µM)

SMILES: CNc1cc(F)cc2c1[nH]c1nc(Oc3ccc(C#N)nc3)nc(N3C[C@H]4C[C@@H]3C[C@H]4N)c12 [4.434]
- MIC [1, 12]: ≤ 0.5 µg/mL
- MIC [1, 13]: ≤ 0.5 µg/mL
- MIC [3]: 1 µg/mL (≈ 2.25 µM)
- MIC [4]: ≤ 0.5 µg/mL
- MIC [6]: ≤ 0.5 µg/mL
- MIC [7, 14]: ≤ 0.5 µg/mL
- MIC ([7]; ATCC13709, Sa = S. aureus): ≤ 0.5 µg/mL
- MIC [8]: 1 µg/mL (≈ 2.25 µM)

SMILES: CNc1cc(F)cc2c1[nH]c1nc(Oc3cnc(C)nc3)nc(N3CC4CCC(N)C4C3)c12 (stereo not shown) [4.076]
- MIC Ec [1, 10]: ≤0.5 µg/mL
- MIC Ec ([1]; Ec = E. coli, strain not given): ≤0.5 µg/mL
- MIC Ft [2]: 2 µg/mL (≈ 4.46 µM)
- MIC Pa [3]: 4 µg/mL (≈ 8.92 µM)
- MIC Ab [4]: ≤0.5 µg/mL
- MIC Yp [5]: ≤0.5 µg/mL
- MIC Spn [6]: ≤0.5 µg/mL
- MIC Sa [7, 11]: ≤0.5 µg/mL
- MIC Sa ([7]; Sa = S. aureus): ≤0.5 µg/mL
- MIC Kpn [8]: 4 µg/mL (≈ 8.92 µM)
- MIC Bt [9]: 1 µg/mL (≈ 2.23 µM)

SMILES: CNc1cc(F)c(C)c2c1[nH]c1nc(Oc3cnc(C)nc3)nc(N3C[C@H](N)C4(CC4)C3)c12 [6.29]
- MIC [1, 12]: ≤ 0.5 µg/mL
- MIC [1, 13]: ≤ 0.5 µg/mL
- MIC [3]: 2 µg/mL (≈ 4.46 µM)
- MIC [4]: ≤ 0.5 µg/mL
- MIC [6]: ≤ 0.5 µg/mL
- MIC [7, 14]: ≤ 0.5 µg/mL
- MIC ([7]; ATCC13709, Sa = S. aureus): ≤ 0.5 µg/mL
- MIC [8]: 2 µg/mL (≈ 4.46 µM)

SMILES: CNc1cc(F)cc2c1[nH]c1nc(Oc3cnc(C)nc3)nc(N3C[C@@H]4[C@H](N)C[C@]4(C)C3)c12 [4.151]
- MIC [1, 12]: ≤ 0.5 µg/mL
- MIC [1, 13]: ≤ 0.5 µg/mL
- MIC [3]: 1 µg/mL (≈ 2.23 µM)
- MIC [4]: ≤ 0.5 µg/mL
- MIC [6]: ≤ 0.5 µg/mL
- MIC [7, 14]: ≤ 0.5 µg/mL
- MIC ([7]; ATCC13709, Sa = S. aureus): ≤ 0.5 µg/mL
- MIC [8]: 1 µg/mL (≈ 2.23 µM)

SMILES: CNc1cc(F)cc2c1[nH]c1nc(Oc3cnc(C(C)O)nc3)nc(N3CC4(CC[C@H]4N)C3)c12 (stereo partly shown) [4.410]
- MIC [1, 12]: ≤ 0.5 µg/mL
- MIC [1, 13]: ≤ 0.5 µg/mL
- MIC [3]: 1 µg/mL (≈ 2.15 µM)
- MIC [4]: 2 µg/mL (≈ 4.31 µM)
- MIC [6]: ≤ 0.5 µg/mL
- MIC [7, 14]: ≤ 0.5 µg/mL
- MIC ([7]; ATCC13709, Sa = S. aureus): ≤ 0.5 µg/mL
- MIC [8]: 2 µg/mL (≈ 4.31 µM)

SMILES: CNc1cc(F)cc2c1[nH]c1nc(Oc3cnc(C)nc3)nc(N3CC4NCCC4(C)C3)c12 (stereo not shown) [4.157]
- MIC [1, 12]: ≤ 0.5 µg/mL
- MIC [1, 13]: ≤ 0.5 µg/mL
- MIC [3]: 8 µg/mL (≈ 17.8 µM)
- MIC [4]: ≤ 0.5 µg/mL
- MIC [6]: ≤ 0.5 µg/mL
- MIC [7, 14]: ≤ 0.5 µg/mL
- MIC ([7]; ATCC13709, Sa = S. aureus): ≤ 0.5 µg/mL
- MIC [8]: 4 µg/mL (≈ 8.92 µM)

SMILES: CNc1cc(F)cc2c1[nH]c1nc(Oc3cnc(C)nc3)nc(N3C[C@@H]4[C@H](C3)[C@@]4(N)C(N)=O)c12 [4.160]
- MIC [1, 12]: 2 µg/mL (≈ 4.32 µM)
- MIC [1, 13]: 2 µg/mL (≈ 4.32 µM)
- MIC [3]: > 16 µg/mL
- MIC [4]: > 16 µg/mL
- MIC [6]: ≤ 0.5 µg/mL
- MIC [7, 14]: ≤ 0.5 µg/mL
- MIC ([7]; ATCC13709, Sa = S. aureus): ≤ 0.5 µg/mL
- MIC [8]: > 16 µg/mL

SMILES: CNc1cc(F)c(F)c2c1[nH]c1nc(Oc3cnc(C)nc3)nc(N3CC4(CCC4N)C3)c12 (stereo not shown) [5.01]
- MIC Ec ([1]; Ec = E. coli, strain not given): ≤0.5 µg/mL
- MIC Pa [3]: ≤0.5 µg/mL
- MIC Ab [4]: ≤0.5 µg/mL
- MIC Spn [6]: ≤0.5 µg/mL
- MIC Sa ([7]; Sa = S. aureus): ≤0.5 µg/mL
- MIC Kpn [8]: 1 µg/mL (≈ 2.21 µM)

SMILES: CNc1cc(F)cc2c1[nH]c1nc(Oc3cnc(C4CC4)nc3)nc(N3CC4C(CN)C4C3)c12 (stereo not shown) [4.249]
- MIC [1, 12]: ≤ 0.5 µg/mL
- MIC [7, 14]: ≤ 0.5 µg/mL

SMILES: CNc1cc(F)cc2c1[nH]c1nc(Oc3cnc(N)nc3)nc(N3CC4C(N)C4C3)c12 (stereo not shown) [4.172]
- MIC [1, 12]: ≤ 0.5 µg/mL
- MIC [7, 14]: ≤ 0.5 µg/mL

SMILES: CNc1ncnc2c1[nH]c1nc(Oc3cncc(F)c3)nc(N3CC4C(N)C4C3)c12 (stereo not shown) [7.04]
- MIC [1, 12]: 32 µg/mL (≈ 78.5 µM)
- MIC [7, 14]: 8 µg/mL (≈ 19.6 µM)

SMILES: CNc1cccc2c1[nH]c1nc(Sc3cnc4ccc[n+]([O-])c4c3)nc(N3CCC4(CC4N)C3)c12 (stereo not shown) [1.38]
- MIC [1, 12]: 2 µg/mL (≈ 4.13 µM)
- MIC [7, 14]: ≤ 0.5 µg/mL

SMILES: CNc1cc(F)cc2c1[nH]c1nc(Oc3cnc(C(C)O)nc3)nc(N3CC4C[C@@H](N)C4C3)c12 (stereo partly shown) [4.409]
- MIC [1, 12]: ≤ 0.5 µg/mL
- MIC [1, 13]: ≤ 0.5 µg/mL
- MIC [3]: 1 µg/mL (≈ 2.15 µM)
- MIC [4]: 1 µg/mL (≈ 2.15 µM)
- MIC [6]: ≤ 0.5 µg/mL
- MIC [7, 14]: ≤ 0.5 µg/mL
- MIC ([7]; ATCC13709, Sa = S. aureus): ≤ 0.5 µg/mL
- MIC [8]: 4 µg/mL (≈ 8.61 µM)

SMILES: COc1cccc2c1[nH]c1nc(Sc3cnc4cccnc4c3)nc(N3CC4C(N)C4C3)c12 (stereo not shown) [1.75]
- MIC [1, 12]: > 64 µg/mL
- MIC [7, 14]: ≤ 0.5 µg/mL

SMILES: COc1cccc2c1[nH]c1nc(Sc3cnc4ccc[n+]([O-])c4c3)nc(N3CC(N)C3)c12 [1.77]
- MIC [1, 12]: > 64 µg/mL
- MIC [7, 14]: 2 µg/mL (≈ 4.49 µM)

SMILES: CNc1cc(F)cc2c1[nH]c1nc(Oc3cncc(F)c3)nc(N3CC4CC(N)C4C3)c12 (stereo not shown) [4.060]
- MIC Ec [1, 10]: ≤0.5 µg/mL
- MIC Sa [7, 11]: ≤0.5 µg/mL

SMILES: COc1cccc2c1[nH]c1nc(Oc3cncnc3)nc(N3CCC(N)C3)c12 (stereo not shown) [2.10]
- MIC Ec [1, 10]: 32 µg/mL (≈ 84.8 µM)
- MIC Sa [7, 11]: 2 µg/mL (≈ 5.3 µM)

SMILES: CNc1cc(F)cc2c1[nH]c1nc(Oc3cnc(N(C)C)nc3)nc(N3CCC(N)C3)c12 (stereo not shown) [4.207]
- MIC Ec [1, 10]: ≤0.5 µg/mL
- MIC Sa [7, 11]: ≤0.5 µg/mL
